Test: photocatalytic hydrogen evolution rate (per 5 mg catalyst); higher = more photocatalytic H2 evolution; extreme values may be limits of the assay
Settings: catalyst mass (mg): 5; Pt cocatalyst (wt%): 3; sacrificial medium: triethylamine/methanol/water 1:1:1
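Also: aromatic molecules in triethylamine/methanol/water with Pt photoreduced in situ, irradiated 3 h under a 1 sun AM 1.5G solar simulator (350–1000 nm), H2 quantified by headspace gas chromatography; listed molecule itself used as the photocatalyst at 5 mg per vial.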

| SMILES | photocatalytic hydrogen evolution rate |
| --- | --- |
| OCCCCc1ccc2ccc3cccc4ccc1c2c34 | 0.855 µmol/h |
| O=Cc1cccc(O)c1 | 0 µmol/h |
| Nc1nc(N)nc(N)n1 | 0 µmol/h |
| N#Cc1cc(F)cc(C#N)c1 | 0 µmol/h |
| Fc1c(F)c(F)c(-c2c(F)c(F)c(F)c(F)c2F)c(F)c1F | 0 µmol/h |
| C#Cc1ccc(C(=O)O)cc1 | 0 µmol/h |
| CCN1C(=O)C(=O)c2cc(Br)cc(Br)c21 | 0.105 µmol/h |
| c1ccc(C(c2ccccc2)c2ccccc2)cc1 | 0 µmol/h |
| COC(=O)c1ccnc(-c2cc(C(=O)OC)ccn2)c1 | 0 µmol/h |
| Cc1c2ccccc2c(C)c2ccccc12 | 0.68 µmol/h |
| c1ccc(Nc2ccccc2)cc1 | 0 µmol/h |
| Nc1ccc(C(c2ccc(N)cc2)(c2ccc(N)cc2)c2ccc(N)cc2)cc1 | 0 µmol/h |
| N#Cc1cc(N)cc(F)c1 | 0 µmol/h |
| Cc1cc(Br)cc(Br)c1 | 0 µmol/h |
| Brc1ccnc(-c2cc(Br)ccn2)c1 | 0 µmol/h |
| O=Cc1ccc2c(c1)c1ccccc1n2Cc1ccccc1 | 2.52 µmol/h |
| N#Cc1c(-n2c3ccccc3c3ccccc32)c(-n2c3ccccc3c3ccccc32)cc(-n2c3ccccc3c3ccccc32)c1-n1c2ccccc2c2ccccc21 | 1.65 µmol/h |
| BrCc1ccc(CBr)cc1 | 0 µmol/h |
| N#Cc1ccc(F)cc1 | 0 µmol/h |
| O=Cc1ccc(S(=O)(=O)c2ccccc2)cc1 | 0.0425 µmol/h |
| Brc1cnc(Br)s1 | 0 µmol/h |
| CCOC(=O)c1ccc(C(=O)OCC)cc1 | 0 µmol/h |
| Cc1cc(-c2cc(C)c(N)c(C)c2)cc(C)c1N | 0 µmol/h |
| COc1c(Br)cc(Br)cc1Br | 0 µmol/h |
| COC(=O)c1cc(Br)oc1Br | 0 µmol/h |

| SMILES | photocatalytic hydrogen evolution rate |
| --- | --- |
| Nc1ccc(-c2ccc(N)c([N+](=O)[O-])c2)cc1[N+](=O)[O-] | 0 µmol/h |
| Brc1ccc2ccccc2c1 | 0.0179 µmol/h |
| O=Cc1c2ccccc2cc2ccccc12 | 2.06 µmol/h |
| c1ccc(-c2ccc(-c3nc(-c4ccc(-c5ccccc5)cc4)nc(-c4ccc(-c5ccccc5)cc4)n3)cc2)cc1 | 0.103 µmol/h |
| N#Cc1nccnc1C#N | 0 µmol/h |
| Brc1cc(Br)cc(-c2cc(Br)cc(Br)c2)c1 | 0.0514 µmol/h |
| CCCCCCCCC1(CCCCCCCC)c2cc(Br)ccc2-c2ccc(Br)cc21 | 0 µmol/h |
| Brc1cc(Br)c2ccc3c(Br)cc(Br)c4ccc1c2c43 | 0.383 µmol/h |
| O=C(O)c1ccc(-c2nc(-c3ccc(C(=O)O)cc3)nc(-c3ccc(C(=O)O)cc3)n2)cc1 | 0.201 µmol/h |
| CCn1c2ccc(Br)cc2c2cc(Br)ccc21 | 1.25 µmol/h |
| N#Cc1ccc(-c2ccc(C#N)cc2)cc1 | 0 µmol/h |
| O=Cc1ccc2ccccc2c1 | 9.93 µmol/h |
| Cc1cc(C#N)cnc1Br | 0 µmol/h |
| O=C(O)c1cc(Br)c(C(=O)O)cc1Br | 0 µmol/h |
| CC(=O)c1ccc(CCc2ccc(C(C)=O)cc2)cc1 | 0.387 µmol/h |
| Fc1c(I)ccc(I)c1F | 0 µmol/h |
| COC(=O)c1cccc(C(=O)OC)c1 | 0.023 µmol/h |
| N#Cc1ccc(-c2ccc(C#N)cn2)nc1 | 0 µmol/h |
| Fc1c(Br)cccc1Br | 0 µmol/h |
| O=C(O)C1CCN(C(=O)c2ccccc2)CC1 | 0 µmol/h |
| O=C(c1ccccc1)c1cc(C(=O)c2ccccc2)cc(C(=O)c2ccccc2)c1 | 14.2 µmol/h |
| Brc1ccc(C#CC#Cc2ccc(Br)cc2)cc1 | 0 µmol/h |
| Cn1cnc(C#N)c1C#N | 0.0397 µmol/h |
| Cc1ccc(C)c(N=Nc2cc(C)c(N=Nc3c(O)ccc4ccccc34)cc2C)c1 | 0 µmol/h |
| Brc1cc2cc3sc(Br)cc3cc2s1 | 0 µmol/h |

| SMILES | photocatalytic hydrogen evolution rate |
| --- | --- |
| Cc1ccc(N(c2ccc(C)cc2)c2ccc(C=O)cc2)cc1 | 0.0671 µmol/h |
| Brc1ccc2c(c1)C1(c3cc(Br)ccc3-2)c2cc(Br)ccc2-c2ccc(Br)cc21 | 0.0511 µmol/h |
| c1ccc(C(c2ccccc2)(c2ccccc2)c2ccccc2)cc1 | 0 µmol/h |
| N#CCc1ccccc1C#N | 0 µmol/h |
| O=Cc1ccc(O)c(Cl)c1 | 0.0661 µmol/h |
| O=C(O)c1cc(C(=O)O)cc(-c2cc(C(=O)O)cc(C(=O)O)c2)c1 | 0 µmol/h |
| Cc1c(C)c(Br)c(C)c(C)c1Br | 0 µmol/h |
| CCCc1ccc(C(=O)CC#N)cc1 | 0.0555 µmol/h |
| COC(=O)c1ccc(C(=O)OC)c(N)c1 | 0.0112 µmol/h |
| N#Cc1cccc(C=O)c1 | 0.204 µmol/h |
| O=c1c2ccccc2c2cc3c(=O)c4ccccc4c3cc12 | 0 µmol/h |
| OC1c2ccccc2-c2ccccc21 | 0 µmol/h |
| O=c1c(Br)c[nH]cc1Br | 0.000384 µmol/h |
| N#Cc1ccc(-c2ccc(N)nc2)cc1 | 0.0826 µmol/h |
| Cn1cc(Br)nc(Br)c1=O | 0 µmol/h |
| N#Cc1ccc(C#N)c2ccccc12 | 0.0654 µmol/h |
| c1ccc(-c2ccccc2-c2ccccc2)cc1 | 0 µmol/h |
| CNc1ccc(C#N)cc1 | 0 µmol/h |
| O=Cc1ccc(-c2ccncc2)cc1 | 3.29 µmol/h |
| O=C(O)c1ccc(-c2ccc(C(=O)O)cc2)cc1 | 0.0704 µmol/h |
| CCOC(=O)c1cc(C(=O)OCC)cc(C(=O)OCC)c1 | 0.0434 µmol/h |
| COC(=O)c1ccc(-c2ccc(Br)cc2)cc1 | 0.0357 µmol/h |
| CN(C)c1ccc(C=O)cc1 | 0.34 µmol/h |
| OB(O)c1ccc(-c2ccc(B(O)O)cc2)cc1 | 0 µmol/h |
| c1cc2ccc3ccc4ccc5ccc6ccc1c1c2c3c4c5c61 | 0 µmol/h |

| SMILES | photocatalytic hydrogen evolution rate |
| --- | --- |
| CC1(C)OB(c2cn[nH]c2)OC1(C)C | 0 µmol/h |
| C#Cc1ccccc1C#N | 0 µmol/h |
| Fc1cc(Br)c2nsnc2c1Br | 0.241 µmol/h |
| O=C1C=C(Br)C(=O)C=C1Br | 0 µmol/h |
| N#CCc1ccccc1CC#N | 0 µmol/h |
| c1ccc(Nc2cc(Nc3ccccc3)cc(Nc3ccccc3)c2)cc1 | 0 µmol/h |
| Brc1ccc(N(c2ccc(Br)cc2)c2ccc(Br)cc2)cc1 | 0.922 µmol/h |
| O=C(O)[C@@H]1CCC(=O)N1C(=O)OCc1ccccc1 | 0 µmol/h |
| CC(=O)c1ccc(-c2ccc(C(C)=O)cc2)cc1 | 3.67 µmol/h |
| N#Cc1ccc(-c2ccccc2)cc1 | 0 µmol/h |
| c1ncncn1 | 0 µmol/h |
| CCc1cc(C)cc(CC)c1Nc1ccc(Nc2c(CC)cc(C)cc2CC)c2c1C(=O)c1ccccc1C2=O | 0 µmol/h |
| O=C1CCc2cccc(O)c21 | 2.68 µmol/h |
| COC(=O)c1nc(N)c(Br)cc1Br | 0 µmol/h |
| c1ccc(Nc2ccc(Nc3ccccc3)cc2)cc1 | 0 µmol/h |
| O=C(n1ccnc1)n1ccnc1 | 0 µmol/h |
| COc1cc(C=O)cc(OC)c1 | 5.78 µmol/h |
| O=Cc1ccc(Br)cc1 | 0.624 µmol/h |
| COC(=O)c1ccc(-c2ccc(C(=O)OC)cc2)cc1 | 0.00435 µmol/h |
| c1cnc2c(c1)ccc1cccnc12 | 0.478 µmol/h |
| N#Cc1cc(C#N)cc(C#N)c1 | 0.00175 µmol/h |
| N#Cc1cccc(F)c1F | 0 µmol/h |
| Nc1nnc(Br)cc1Br | 0.0148 µmol/h |
| OB(O)c1ccc(Br)nc1 | 0 µmol/h |
| OC(c1ccccc1)c1ccccc1 | 0 µmol/h |

| SMILES | photocatalytic hydrogen evolution rate |
| --- | --- |
| CCCCCCCCCCCCCCCCCCn1c(=O)c2ccc3sc4ccccc4c4ccc(c1=O)c2c34 | 12.3 µmol/h |
| N#CC(C#N)=c1ccc(=C(C#N)C#N)cc1 | 0 µmol/h |
| N#Cc1cc(C#N)c(C#N)cc1C#N | 0 µmol/h |
| Brc1ccc(Br)c2ccccc12 | 0 µmol/h |
| N#Cc1c(-n2c3ccccc3c3ccccc32)c(C#N)c(-n2c3ccccc3c3ccccc32)c(-n2c3ccccc3c3ccccc32)c1-n1c2ccccc2c2ccccc21 | 20.5 µmol/h |
| Cc1ccc(N)cc1C#N | 0 µmol/h |
| O=C1c2ccc(Br)cc2C(=O)c2ccc(Br)cc21 | 0 µmol/h |
| COc1ccc(Nc2ccc(OC)cc2)cc1 | 0.055 µmol/h |
| N#Cc1ccc(Br)nc1 | 0 µmol/h |
| C=Cc1ccc2c(=C(C#N)C#N)c3ccccc3c(=C(C#N)C#N)c2c1 | 0 µmol/h |
| O=C(O)Cc1ccccc1 | 0.0603 µmol/h |
| c1ccc(-c2ccccn2)nc1 | 0 µmol/h |
| N#Cc1cc(Br)ccc1Br | 0 µmol/h |
| COC(=O)c1ccc(B(O)O)cc1 | 0.0394 µmol/h |
| OB(O)c1cc(Br)cc(Br)c1 | 0 µmol/h |
| c1ccc2ccccc2c1 | 0 µmol/h |
| O=Cc1ccc(-c2ccc(C=O)cn2)nc1 | 0.927 µmol/h |
| O=Cc1ccc(O)c(F)c1 | 0.0382 µmol/h |
| Fc1c(F)c(Br)c2nsnc2c1Br | 2.63 µmol/h |
| Nc1ccc(Br)cc1 | 0 µmol/h |
| COc1cc(C=O)ccc1O | 0.0183 µmol/h |
| N#Cc1cccc(Br)n1 | 0 µmol/h |
| c1ccc2[nH]ccc2c1 | 0 µmol/h |
| O=[N+]([O-])c1cc(Br)ccc1Br | 0 µmol/h |
